Earlier results on one compound are cited in CN102028697A, “含非离子表面活性剂的拉坦前列素滴眼液及制备方法” (SHANGHAI SINE PHARMACEUTICAL CO Ltd, priority 2009, dated 2011).

For data set [1] the following is noted: in water.

On to `CC(C)OC(=O)CCC/C=C\C[C@@H]1[C@@H](CC[C@@H](O)CCc2ccccc2)[C@H](O)C[C@@H]1O` [拉坦前列素], for which the “permissible time at 40℃” value is no more than 8 days. Also, the solubility result in data set [1] is given as “几乎不溶”.
